Results taken from patent US20180298344A1, “Realistic Humanized Model of Disease Matrix Environment for Evaluation of Therapeutic Reversal or Cell Fate” (Yale University, priority 2017, published 2018).

System: human microvascular pericytes (PC)
Assay: Long-term (28 day) differentiation of PC on glass coverslips: matrix deposition, fibrotic lesions, α-SMA and vimentin
Type: cell-based
Conditions: for increase in the formation of lesions compared with nonactivated control: glass
Protocol: Human microvascular PC were isolated from a readily available and nearly inexhaustible source, human placental tissue, by microvascular segment explant outgrowth (Sava et al., Microcirculation, 2015, 22:54-67; Ayres-Sander et al., PLoS One, 2013, 8:e60025; Lauridsen et al., FASEB, 2014, 28:1166-1180; Maier et al., Microcirculation, 2010, 17:367-380). Human placental tissue was segmented, digested with collagenase, and the resulting cells were cultured in M199 (Gibco, Grand Island, NY, USA) medium supplemented with 20% FBS (Hyclone Laboratories, Logan, Utah, USA), and 1% penicillin-streptomycin (Gibco). Isolated pericytes were screened by flow cytometry against NG2 (H-300, Santa Cruz Biotechnology), CD90 (K-15, Santa Cruz), CD146 (P1H12, Biolegend, San Diego, Calif., USA), PDGFR-β (18A2, Santa Cruz), α-SMA (1A4, Santa Cruz), SMMHC (N-16, Santa Cruz), CD31 (C20, Santa Cruz), CD34 (581, Sigma) and CD45 (MEM-28, Sigma). As negative control, PC were incubated with isotype matched IgG. Samples were run on a Stratedigm S1000EXi Flow Cytometer (Stratedigm, San Jose, Calif. USA) and analyzed with FlowJo software (Tree Star, Ashland, Oreg., USA).
For short term (7 day) differentiation studies, PC (passage 3-7) were seeded on healthy or IPF lung tissue slices, polyacrylamide hydrogels, or 25 mm glass coverslips (VWR) at 100×10^3 cells per sample and activated with control media (non-activated), or 1 ng/mL TGF-β1 (PeproTech, Rocky Hill, N.J., USA) for 7 days (18, 19). For bleomycin activation, the cells were activated with 1 μg/mL bleomycin sulfate (Cayman Chemical, Ann Arbor, Mich.) for 1 day and the media was replaced with non-activated media for the remaining 6 days (Sava et al., Microcirculation, 2015, 22:54-67; Sterling et al., J Bio Chem, 1983, 258:14438-14444). TGF-β1 and bleomycin concentrations were based on reports consistent with activation of fibroblasts (Sava et al., Microcirculation, 2015, 22:54-67; Maroni and Davis, Bio Reprod, 2012, 87:127). Treatment with CCG-1423 (Sigma) was performed at day 0 for the full 7 days, and labeled as early treatment, or at day 7 and performed for 7 days, and labeled as late treatment. For long-term (28 day) differentiation studies, PC were cultured on 25 mm glass coverslips (VWR) or normal lung sections and the cell media was supplemented with 100 μM ascorbic acid (Spectrum Chemicals, New Brunswick, N.J., USA) to induce matrix deposition. Activation was performed with control media (non-activated), or 1 ng/mL TGF-β1. The media was replaced 3 times a week for 4 consecutive weeks (28 days) in order to mimic the chronic conditions present during fibrosis (Moeller et al., Int J Biochem Cell Biol, 2008, 40:362-382; Sava et al., Microcirculation, 2015, 22:54-67). Treatment with nintedanib (Santa Cruz) was performed at day 21 for the remaining 7 days, and labeled as early treatment, or at day 28 and performed for 2 days, and labeled as late treatment. Concentrations of CCG-1423 (1.0 nM), and nintedanib (1.0 nM) are based on therapeutic dose in studies performed on myofibroblasts (Evelyn et al., Mol Cancer Ther, 2007, 6:2249-2260, Hostettler et al., Resp Res, 2014, 15:157; Conte et al., Eur J Pharm Sci, 2014, 58:13-19; Shi et al., PLoS One, 2011, 6:e28134).
Pericyte pro-fibrotic activation/transition/phenotype was evaluated by positive staining for α-smooth muscle actin (SMA) using anti-α-SMA (1A4, Santa Cruz) and anti-vimentin (V630, Sigma). For matrix composition analysis, the coverslips were stained with anti-collagen I (ab233446, Abcam, Cambridge, Mass., USA), anti-laminin (Clone ab11575, Abcam), anti-collagen IV (Clone C1926, Sigma), or anti-fibronectin (Clone F3648, Sigma) antibodies.

[1] = nintedanib 7 days, TGF-β1-activated PC on glass, flow cytometry

Molecule	expression of vimentin [1]	expression of α-SMA [1]	fibrotic node formation (nintedanib 7 days, TGF-β1-activated PC on glass, versus TGF-β1)	fibronectin (nintedanib 7 days, TGF-β1-activated PC on glass, versus TGF-β1, immunoblotting, P=0.002)	collagen I (nintedanib 7 days, TGF-β1-activated PC on glass, versus TGF-β1, immunoblotting, P=0.01)	increase in the formation of lesions compared with nonactivated control (day 14 of TGF-β1 exposure, P<0.001) [fold]	increase in the formation of lesions compared with nonactivated control (day 28 of TGF-β1 exposure, P<0.01) [fold]	vimentin expression compared with nonactivated control (long-term TGF-β1 activation on glass, P<0.0001)	α-SMA expression compared with nonactivated control (long-term TGF-β1 activation on glass, P=0.011)
COC(=O)c1ccc2c(c1)NC(=O)/C2=C(\Nc1ccc(N(C)C(=O)CN2CCN(C)CC2)cc1)c1ccccc1 [nintedanib]	without affecting	without affecting	reduced	reduced	reduced	–	–	–	–
TGF-β1: transforming growth factor (TGF)-β1, fibrotic activator, used at 1 ng/mL	–	–	–	–	–	2.2	1.8	significant increase	significant increase
